Earlier results on ten compounds are cited in US20080293821A1, “Cooling compositions” (priority 2007, published 2008).

Structures are written as SMILES.

The series deals with T1, recombinant cold-menthol receptor TRPM8 (mTRPM8) (Mus musculus, UniProt Q8R4D5).
T1 construct: host or cells: HEK293 cells (recombinant expression)
T1 sequence (Q8R4D5 whole entry): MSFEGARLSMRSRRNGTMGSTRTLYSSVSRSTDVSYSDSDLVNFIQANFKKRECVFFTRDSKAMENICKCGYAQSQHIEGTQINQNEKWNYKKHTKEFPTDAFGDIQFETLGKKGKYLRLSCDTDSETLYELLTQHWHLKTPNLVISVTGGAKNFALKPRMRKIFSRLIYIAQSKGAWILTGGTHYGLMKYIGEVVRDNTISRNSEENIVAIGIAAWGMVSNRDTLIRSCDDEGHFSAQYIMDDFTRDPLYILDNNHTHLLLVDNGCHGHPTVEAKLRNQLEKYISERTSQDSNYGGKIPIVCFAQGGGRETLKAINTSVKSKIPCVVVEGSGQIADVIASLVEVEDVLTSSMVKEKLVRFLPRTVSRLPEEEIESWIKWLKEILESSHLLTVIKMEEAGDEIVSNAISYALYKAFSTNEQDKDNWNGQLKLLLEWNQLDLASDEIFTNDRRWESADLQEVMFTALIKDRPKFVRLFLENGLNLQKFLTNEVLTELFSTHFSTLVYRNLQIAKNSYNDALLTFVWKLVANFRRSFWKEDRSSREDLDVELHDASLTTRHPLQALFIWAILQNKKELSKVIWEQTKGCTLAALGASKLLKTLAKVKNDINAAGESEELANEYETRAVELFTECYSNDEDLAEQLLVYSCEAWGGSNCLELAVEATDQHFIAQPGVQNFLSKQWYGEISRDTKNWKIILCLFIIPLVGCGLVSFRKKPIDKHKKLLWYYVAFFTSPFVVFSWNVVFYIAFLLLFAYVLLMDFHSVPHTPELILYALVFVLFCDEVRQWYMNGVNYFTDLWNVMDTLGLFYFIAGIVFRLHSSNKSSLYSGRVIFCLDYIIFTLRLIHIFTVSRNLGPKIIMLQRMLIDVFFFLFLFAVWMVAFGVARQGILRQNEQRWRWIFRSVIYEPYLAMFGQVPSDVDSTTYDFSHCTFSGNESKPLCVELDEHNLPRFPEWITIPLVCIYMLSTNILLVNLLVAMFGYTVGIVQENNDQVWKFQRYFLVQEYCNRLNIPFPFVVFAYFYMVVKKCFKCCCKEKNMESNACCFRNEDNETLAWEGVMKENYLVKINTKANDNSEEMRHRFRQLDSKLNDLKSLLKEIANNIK
Conditions: mTRPM8 expressed in HEK293 cells, FLIPR; British Journal of Pharmacology 141, 737-745 (2004).
Consider `CCNC(=O)C1CC(C)CCC1C(C)C` (stereo not shown) [WS-3, N-Ethyl-p-menthane-3-carboxamide], for which the “agonist activity on TRPM8” value is recorded as “agonists”.

`CNC(=O)C(C)(C(C)C)C(C)C` [WS-23, 2-Isopropyl-N,2,3-trimethylbutyramide]: the “agonist activity on TRPM8” value is reported as “agonists”.

Consider `CC1CCC(C(C)C)C(OCC(O)CO)C1` (stereo not shown) [Cooling Agent 10], for which the “agonist activity on TRPM8” value is listed as “agonists”.

On to `CC(C)=CCC/C(C)=C/CO` [geraniol], for which the “agonist activity on TRPM8” value is recorded as “agonists”.

With `CC1CCC(C(C)C)C(OC(=O)C(C)O)C1` (stereo not shown) [Frescolat ML, menthyl lactate], the “agonist activity on TRPM8” value was “agonists”.

For the compound `C=C(C)[C@@H]1CC[C@@H](C)C[C@H]1O` [Coolact P], the “agonist activity on TRPM8” value is “agonists”.

Consider `C[C@@H]1CC[C@@H](C(C)(C)O)[C@H](O)C1` [PMD38], for which the “agonist activity on TRPM8” value is “agonists”.

As for `CC(CC=O)CCCC(C)(C)O` (stereo not shown) [hydroxycitronellal], the “agonist activity on TRPM8” value is reported as “agonists”.

For the compound `C=CC(C)(O)CCC=C(C)C` (stereo not shown) [linalool], the “agonist activity on TRPM8” value was “agonists”.

Turning to `CC1CCC(C(C)C)C2(C1)OCC(CO)O2` (stereo not shown) [Frescolat MGA, 6-isopropyl-9-methyl-1,4-dioxaspiro-(4,5)-decane-2-methanol], the “agonist activity on TRPM8” value is recorded as “agonists”.
